Tested on: rd10 mice
Assay: rd10 mouse retinal degeneration, systemic (i.p.) administration
Format: in vivo
From the text: Animals: C57BL/6J mice wild-type (WT) and homozygous for the Pde6 mutation (rd10 mouse model of retinal degeneration) were obtained from The Jackson Laboratory. C57BL/6 KFERQ-Dendra mice were generated by back-crossing FVB KFERQ-Dendra mice with wild-type C57BL/6 mice for 8 generations. Both male and female animals were used in this study in equal distribution groups. However, results from both sexes were pooled, because of absence of significant differences in any of the parameters analyzed after statistical analysis with a mixed model of two-way ANOVA sex and treatment as independent variables and the corresponding measure as dependent variable. All animals were housed in a barrier-controlled facility (19-23° C. 30-60% relative humidity; 12-h light/dark cycle) with ad libitum access to standard chow pellets and water. For animal administration of CA compounds, a formula containing 30% PEG 400, 65% glucose solution (5%), 5% Tween 80 was used to dissolve them. CA compounds were prepared freshly by adding 5% DMSO and sonicating for 1 h. Treatment of KFERQ-Dendra mice with the CA compounds was done by i.p. daily injection of 30 mg/kg bw or vehicle for three consecutive days and tissues collected 6 h after the last injection. In the case of rd10 mice, animals were daily injected from P18 to P25 with CA77 (40 mg/kg bw). At P26, mice were sacrificed, and eyes fixed overnight with 4% PFA in PBS at 4° C. for immunofluorescence or retinas dissected and immediately frozen for biochemistry. Distribution of animals in the vehicle or treatment group was done randomly. All animal studies and procedures complied with ethical regulations, were performed in accordance with the European Union guidelines and the ARVO Statement for the Use of Animals in Ophthalmic and Vision Research and were approved by the Institutional Animal Care and Use Committee at the Albert Einstein College of Medicine, the CSIC Bioetica Comite and approved by the Comunidad de Madrid, PROEX232/17.
Cryosections and immunofluorescence: Cryosections and immunofluorescence in retinal sections were performed as previously described 10. Primary antibodies used in this study were Transducin (Santacruz Biotechnologies) and Opsin R/G (Millipore). Sections were visualized by confocal microscopy (TCS SP5; Leica Microsystems).
ONL thickness and outer segment length quantification: For ONL thickness quantification, DAPI images were taken at 40× in a fluorescence microscope Multidimensional system Leica AF6000 LX coupled to DMI600B microscope and Hamamatsu CCD 9100-02 camera. At least two sections per animal were analyzed, preferably central sections. Eight images per retina equally distributed along the retina were acquired. Three measures were taken per image and ratio ONL/INL quantified with ImageJ tools. Leica LAS-X was used for image acquisition and ImageJ (v.2.1.0) was used for image processing. For OS length measures, fixed positions common to all pictures were considered and OS length was measured using ImageJ straight line tool.
Mice were dark adapted overnight, and subsequent manipulations were performed in dim red light. Mice were anesthetized with intraperitoneal injections of ketamine (95 mg/kg) and xylazine (5 mg/kg) solution and maintained on a heating pad at 37° C. Pupils were dilated with a drop of 1% tropicamide (Colircusi Tropicamida; Alcon Cusi). To optimize electrical recording, a topical drop (2% Methocel; Hetlingen) was instilled on each eye immediately before situating the corneal electrode. Flash-induced ERG responses were recorded from the right eye in response to light stimuli produced with a Ganzfeld stimulator. Light intensity was measured with a photometer at the level of the eye (Mavo Monitor USB; Nürenberg). Four to 64 consecutive stimuli were averaged with an interval between light flashes in scotopic conditions of 10 s for dim flashes and of up to 60 s for the highest intensity. Under photopic conditions, the interval between light flashes was fixed at 1 s. […]

[1] = daily i.p. 40 mg/kg bw, p18 to p25

Structure (SMILES): CC(=O)Nc1ccc(C2=Nc3ccc(Cl)cc3OC2)cc1 [CA77]
- electroretinogram wave amplitude (ERG at P33): significantly higher amplitude of their b-mixed, b-phot and flicker waves
- other light responses (ERG) (ERG at P33): No significant differences
- NCoR1 expression levels (WT and rd10 mice, daily i.p. 40 mg/kg bw): did not change the expression levels of NCoR1
- mRNA levels of photoreceptor-specific proteins (rhodopsin) [1]: Higher mRNA levels of photoreceptor-specific proteins
- outer nuclear layer (ONL) thickness [1]: significantly thicker outer nuclear layers
- retinal GFAP levels [1]: strikingly lower levels of GFAP
- retinal L2A levels (immunoblot) [1]: significantly increasing retinal levels of the limiting CMA component
- length of outer segments of photoreceptors (daily i.p. 40 mg/kg bw, p18 to p25, vs vehicle): increased length of the outer segments of photoreceptors
